Assays:
Format in all cases: functional
Acinetobacter baumannii [1] = assay: Antibiotic adjuvant activity against multi-drug resistant Acinetobacter baumannii clinical isolate AB027 assessed as rifampicin MIC incubated for 18 hrs in presence of Rifampicin by two fold broth microdilution checkerboard assay
Escherichia coli [2] = assay: Antibiotic adjuvant activity against multi-drug resistant Escherichia coli clinical isolate EC94474 assessed as inhibition of bacterial growth incubated for 18 hrs in presence of doxycycline by two fold broth microdilution checkerboard assay
Acinetobacter baumannii [3] = assay: Antibiotic adjuvant activity against multi-drug resistant Acinetobacter baumannii clinical isolate 92247 assessed as rifampicin MIC incubated for 18 hrs in presence of Rifampicin by two fold broth microdilution checkerboard assay
Acinetobacter baumannii [4] = assay: Antibiotic adjuvant activity against Acinetobacter baumannii ATCC 17978 assessed as minocycline MIC incubated for 18 hrs in presence of minocycline by two fold broth microdilution checkerboard assay
Pseudomonas aeruginosa [5] = assay: Antibacterial activity against multi-drug resistant Pseudomonas aeruginosa clinical isolate PA264 assessed as inhibition of bacterial growth incubated for 18 hrs by two fold broth microdilution assay
Pseudomonas aeruginosa [6] = assay: Antibiotic adjuvant activity against multi-drug resistant Pseudomonas aeruginosa clinical isolate PA264 assessed as rifampicin MIC incubated for 18 hrs in presence of Rifampicin by two fold broth microdilution checkerboard assay
Escherichia coli [7] = assay: Antibiotic adjuvant activity against multi-drug resistant Escherichia coli clinical isolate EC107115 assessed as inhibition of bacterial growth incubated for 18 hrs in presence of doxycycline by two fold broth microdilution checkerboard assay
Acinetobacter baumannii [8] = assay: Antibiotic adjuvant activity against Acinetobacter baumannii ATCC 17978 assessed as fold potentiation at 16 ug/ml incubated for 18 hrs in presence of rifampicin and 25 % FBS media by two fold broth microdilution checkerboard assay; conditions: dose 16 µg/ml
Acinetobacter baumannii [9] = assay: Antibiotic adjuvant activity against multi-drug resistant Acinetobacter baumannii clinical isolate AB027 assessed as fractional inhibitory concentration index incubated for 18 hrs in presence of Rifampicin by two fold broth microdilution checkerboard assay
Pseudomonas aeruginosa [10] = assay: Antibiotic adjuvant activity against multi-drug resistant Pseudomonas aeruginosa clinical isolate PA259 assessed as rifampicin MIC incubated for 18 hrs in presence of Rifampicin by two fold broth microdilution checkerboard assay
Pseudomonas aeruginosa [11] = assay: Antibiotic adjuvant activity against multi-drug resistant Pseudomonas aeruginosa clinical isolate PA259 assessed as fractional inhibitory concentration index incubated for 18 hrs in presence of minocycline by two fold broth microdilution checkerboard assay
Pseudomonas aeruginosa [12] = assay: Antibiotic adjuvant activity against multi-drug resistant Pseudomonas aeruginosa clinical isolate 114228 assessed as fractional inhibitory concentration index incubated for 18 hrs in presence of Rifampicin by two fold broth microdilution checkerboard assay
Pseudomonas aeruginosa [13] = assay: Antibiotic adjuvant activity against multi-drug resistant Pseudomonas aeruginosa clinical isolate PA259 assessed as inhibition of bacterial growth incubated for 18 hrs in presence of Rifampicin by two fold broth microdilution checkerboard assay
Enterococcus faecium [14] = assay: Antibiotic adjuvant activity against Enterococcus faecium 114278 assessed as fold potentiation incubated for 18 hrs in presence of rifampicin by two fold broth microdilution checkerboard assay
Pseudomonas aeruginosa [15] = assay: Antibiotic adjuvant activity against multi-drug resistant Pseudomonas aeruginosa clinical isolate PA264 assessed as fold potentiation incubated for 18 hrs in presence of minocycline by two fold broth microdilution checkerboard assay
Pseudomonas aeruginosa [16] = assay: Antibiotic adjuvant activity against Pseudomonas aeruginosa PAO1 assessed as fold potentiation incubated for 18 hrs in presence of doxycycline by two fold broth microdilution checkerboard assay
Escherichia coli [17] = assay: Antibiotic adjuvant activity against Escherichia coli ATCC 25922 assessed as rifampicin MIC incubated for 18 hrs in presence of Rifampicin by two fold broth microdilution checkerboard assay
Pseudomonas aeruginosa [18] = assay: Antibiotic adjuvant activity against multi-drug resistant Pseudomonas aeruginosa clinical isolate PA264 assessed as fold potentiation incubated for 18 hrs in presence of doxycycline by two fold broth microdilution checkerboard assay
Acinetobacter baumannii [19] = assay: Antibiotic adjuvant activity against Acinetobacter baumannii ATCC 17978 assessed as novobiocin MIC incubated for 18 hrs in presence of novobiocin by two fold broth microdilution checkerboard assay
Pseudomonas aeruginosa [20] = assay: Antibiotic adjuvant activity against multi-drug resistant Pseudomonas aeruginosa clinical isolate PA259 assessed as doxycycline MIC incubated for 18 hrs in presence of doxycycline by two fold broth microdilution checkerboard assay
Pseudomonas aeruginosa [21] = assay: Antibacterial activity against multi-drug resistant Pseudomonas aeruginosa clinical isolate PA114228 assessed as inhibition of bacterial growth incubated for 18 hrs by two fold broth microdilution assay
Pseudomonas aeruginosa [22] = assay: Antibiotic adjuvant activity against multi-drug resistant Pseudomonas aeruginosa clinical isolate PA114228 assessed as inhibition of bacterial growth incubated for 18 hrs in presence of doxycycline by two fold broth microdilution checkerboard assay
Enterococcus faecium [23] = assay: Antibiotic adjuvant activity against Enterococcus faecium 114278 assessed as fractional inhibitory concentration index incubated for 18 hrs in presence of rifampicin by two fold broth microdilution checkerboard assay
Pseudomonas aeruginosa [24] = assay: Antibacterial activity against multi-drug resistant Pseudomonas aeruginosa clinical isolate 101243 assessed as inhibition of bacterial growth incubated for 18 hrs by two fold broth microdilution assay
Pseudomonas aeruginosa [25] = assay: Antibiotic adjuvant activity against multi-drug resistant Pseudomonas aeruginosa clinical isolate PA114228 assessed as inhibition of bacterial growth incubated for 18 hrs in presence of minocycline by two fold broth microdilution checkerboard assay
Pseudomonas aeruginosa [26] = assay: Antibiotic adjuvant activity against multi-drug resistant Pseudomonas aeruginosa clinical isolate 114228 assessed as fold potentiation incubated for 18 hrs in presence of Rifampicin by two fold broth microdilution checkerboard assay
Pseudomonas aeruginosa [27] = assay: Antibiotic adjuvant activity against Pseudomonas aeruginosa PAO1 assessed as fold potentiation incubated for 18 hrs in presence of rifampicin and CAMHB Mg2+ media by two fold broth microdilution checkerboard assay
Acinetobacter baumannii [28] = assay: Antibiotic adjuvant activity against multi-drug resistant Acinetobacter baumannii clinical isolate AB031 assessed as fractional inhibitory concentration index incubated for 18 hrs in presence of Rifampicin by two fold broth microdilution checkerboard assay
Escherichia coli [29] = assay: Antibiotic adjuvant activity against multi-drug resistant Escherichia coli clinical isolate 107115 assessed as fold potentiation incubated for 18 hrs in presence of Rifampicin by two fold broth microdilution checkerboard assay
Pseudomonas aeruginosa [30] = assay: Antibiotic adjuvant activity against multi-drug resistant Pseudomonas aeruginosa clinical isolate PA114228 assessed as doxycycline MIC incubated for 18 hrs in presence of doxycycline by two fold broth microdilution checkerboard assay
Escherichia coli [31] = assay: Antibiotic adjuvant activity against multi-drug resistant Escherichia coli clinical isolate EC107115 assessed as fold potentiation incubated for 18 hrs in presence of doxycycline by two fold broth microdilution checkerboard assay
Escherichia coli [32] = assay: Antibiotic adjuvant activity against multi-drug resistant Escherichia coli clinical isolate 107115 assessed as rifampicin MIC incubated for 18 hrs in presence of Rifampicin by two fold broth microdilution checkerboard assay
Acinetobacter baumannii [33] = assay: Antibiotic adjuvant activity against multi-drug resistant Acinetobacter baumannii clinical isolate 110193 assessed as rifampicin MIC incubated for 18 hrs in presence of Rifampicin by two fold broth microdilution checkerboard assay
Escherichia coli [34] = assay: Antibiotic adjuvant activity against Escherichia coli ATCC 25922 assessed as fold potentiation incubated for 18 hrs in presence of rifampicin and CAMHB Mg2+ media by two fold broth microdilution checkerboard assay
Escherichia coli [35] = assay: Antibiotic adjuvant activity against multi-drug resistant Escherichia coli clinical isolate EC94474 assessed as fold potentiation incubated for 18 hrs in presence of doxycycline by two fold broth microdilution checkerboard assay
Pseudomonas aeruginosa [36] = assay: Antibiotic adjuvant activity against multi-drug resistant Pseudomonas aeruginosa clinical isolate PA262 assessed as fractional inhibitory concentration index incubated for 18 hrs in presence of doxycycline by two fold broth microdilution checkerboard assay

Structure (SMILES): Cl.NC[C@H]1O[C@H](O[C@H]2[C@H](OCc3ccccc3)[C@@H](O[C@H]3O[C@H](COCc4ccccc4)[C@@H](OCc4ccccc4)[C@H](N)[C@H]3OCc3ccccc3)[C@H](N)C[C@@H]2N)[C@H](N)C[C@@H]1OCc1ccccc1
- MIC (Acinetobacter baumannii [1]): 0.004 µg/mL
- MIC (Escherichia coli [2]): 8 µg/mL
- MIC (Acinetobacter baumannii [3]): 0.008 µg/mL
- MIC (Acinetobacter baumannii [4]): ≤ 4 µg/mL
- MIC (Pseudomonas aeruginosa [5]): 128 µg/mL
- MIC (Pseudomonas aeruginosa [6]): 16 µg/mL
- MIC (Escherichia coli [7]): 8 µg/mL
- fold change (FC) (Acinetobacter baumannii [8]): 32
- fractional inhibitory concentration index (FICI) (Acinetobacter baumannii [9]): 0.125
- MIC (Pseudomonas aeruginosa [10]): 16 µg/mL
- fractional inhibitory concentration index (FICI) (Pseudomonas aeruginosa [11]): 1.063
- fractional inhibitory concentration index (FICI) (Pseudomonas aeruginosa [12]): 1.125
- MIC (Pseudomonas aeruginosa [13]): 8 µg/mL
- fold change (FC) (Enterococcus faecium [14]): 1
- fold change (FC) (Pseudomonas aeruginosa [15]): 2
- fold change (FC) (Pseudomonas aeruginosa [16]): 4
- MIC (Escherichia coli [17]): 0.008 µg/mL
- fold change (FC) (Pseudomonas aeruginosa [18]): 1
- MIC (Acinetobacter baumannii [19]): 0.5 µg/mL
- MIC (Pseudomonas aeruginosa [20]): 256 µg/mL
- MIC (Pseudomonas aeruginosa [21]): 64 µg/mL
- MIC (Pseudomonas aeruginosa [22]): 8 µg/mL
- fractional inhibitory concentration index (FICI) (Enterococcus faecium [23]): 1.5
- MIC (Pseudomonas aeruginosa [24]): 64 µg/mL
- MIC (Pseudomonas aeruginosa [25]): 8 µg/mL
- fold change (FC) (Pseudomonas aeruginosa [26]): 1
- fold change (FC) (Pseudomonas aeruginosa [27]): 1
- fractional inhibitory concentration index (FICI) (Acinetobacter baumannii [28]): 0.251
- fold change (FC) (Escherichia coli [29]): 1024
- MIC (Pseudomonas aeruginosa [30]): > 128 µg/mL
- fold change (FC) (Escherichia coli [31]): 4
- MIC (Escherichia coli [32]): 0.125 µg/mL
- MIC (Acinetobacter baumannii [33]): 0.004 µg/mL
- fold change (FC) (Escherichia coli [34]): 2
- fold change (FC) (Escherichia coli [35]): 8
- fractional inhibitory concentration index (FICI) (Pseudomonas aeruginosa [36]): 1.063

Reference: ChEMBL document CHEMBL5335843, “Application of tobramycin benzyl ether as an antibiotic adjuvant capable of sensitizing multidrug-resistant Gram-negative bacteria to rifampicin” (2024)
